Assay results reported in PMC4449006, “Targeting KRAS Oncogene in Colon Cancer Cells with 7-Carboxylate Indolo[3,2-b]quinoline Tri-Alkylamine Derivatives” (PLoS ONE, 2015).

How the values were obtained:
[1] = test system: HEK293T cells; test: MTS short-term cytotoxicity assay (72 h), HEK293T; assay type: cell-based, human; details: MTS
Protocol: (§1) The short-term effect of compounds at 72 h on cell growth was studied using colorectal carcinoma cell lines with different KRAS and TP53 genotypes: human colorectal carcinoma HCT116 (mut Kras, wild-type (wt) p53), and human metastatic colorectal adenocarcinoma SW620 (mut Kras, mut p53). In parallel, we also used the immortalized human embryonic kidney cell line HEK293T (wt Kras, wt p53) and normal human colon fibroblast cells CCD18co (wt Kras, wt p53).
(§2) SW620 human colorectal adenocarcinoma cells (European Collection of Cell Cultures, ECACC, Porton Down, Wiltshire, UK), HEK293T human embryonic kidney cells (ATCC, LGC Standards, UK) HCT116 human colon carcinoma cells (ECACC), HCT116 p53(+/+) and p53(−/−) isogenic human colon cancer cells (GRCF Cell Center and Biorepository, the Johns Hopkins University, School of Medicine, Baltimore, MD, USA), were grown in Dulbecco’s modified Eagle’s medium (DMEM) supplemented with 10% fetal bovine serum, and 1% antibiotic/antimycotic (Invitrogen, Grand Island, NY, USA), CCD18co human colon fibroblasts (ATCC, CRL-1459) were grown in Minimum Essential Medium (MEM) supplemented with 10% fetal bovine serum, 1% antibiotic/antimycotic, 2 mM GlutaMAX, 0,1 mM Non-essential amino acids (NEAA) (Invitrogen) and […] Recombinant Human TNF-α (Peprotech, USA) and maintained at 37°C in a humidified atmosphere of 5% CO2.
(§3) Cell viability was evaluated by the tetrazolium dye (MTS) Short-Term Cytotoxicity Assay. […] Following 72 h of compound exposure, cell viability was evaluated using the CellTiter 96 AQueous Non-Radioactive Cell Proliferation Assay (Promega, Madison, WI, USA), using 3-(4,5-dimethylthiazol-2-yl)-5-(3-carboxymethoxyphenyl)-2-(4-sulfophenyl)-2H-tetrazolium, inner salt (MTS) as previously described [35]. Cell viability data were expressed as mean ±SD from at least three independent experiments. IC50 and IC65 values were determined using GaphPad Prism v.5.00 (GraphPad Software). In selected experiments, cell viability was also assessed by trypan blue exclusion assay, and general cell death by LDH activity from cell culture supernatants.

[2] = test system: HCT116 cells; test: MTS short-term cytotoxicity assay (72 h), HCT116; assay type: cell-based, human
Protocol: as §1, §2, §3

[3] = test system: T-Loop duplex DNA; test: FRET melting assay, duplex DNA; assay type: binding; details: standard deviation < 0.2°C
Protocol: (§4) The capacity of compounds 1a-d, 2a-d and the standard G4 ligand TMPyP4 (Fig 1) to bind and stabilize KRAS [26] and HSP90A [27] G4 DNA structures as well as duplex DNA (T-loop) was evaluated by a Fluorescence Resonance Energy Transfer (FRET) melting assay. […] It was observed that the basicity of side chains correlates positively with thermal G4 stabilization of all DNA sequences up to an optimal pKa ~ 8.0–9.0 (Fig 2). Heterocyclic amines at the end of alkyl side chain (1b and 2b) appear to improve binding to G4s and complex stabilization compared to the di-ethylamine group (1a and 2a), which cannot be explained by differences in basicity between terminal groups. […] However, this was not observed for the isomeric pair 1a / 2a.
(§5) All oligonucleotides were purchased from Eurofins MWG Synthesis GmbH, Germany. The labeled oligonucleotides used in the FRET assays had attached the donor fluorophore FAM (6-carboxyfluorescein) and the acceptor fluorophore TAMRA (6-carboxytetramethylrhodamine): KRAS21R (5’-FAM-[…]-TAMRA-3’); HSP90A (5’- [FAM]-[…]-[TAMRA]-3’); T-Loop (5’-FAM-[…]-TAMRA-3’). Each oligonucleotide was initially diluted to a storage solution at 100 μM in nuclease free water (not DEPC-treated), purchased from Ambion Applied Biosystems UK.
(§6) The ability of IQ3A and TMPyP4 to stabilize G-quadruplex and duplex DNA sequences was investigated using a Fluorescence Resonance Energy Transfer (FRET) assay. Stock solution of the oligonucleotides sequences at 20 μM and subsequent dilutions were obtained from storage solutions diluting with K-cacodylate buffer pH = 7.4, containing 60 mM K^+ (10 mM potassium cacodylate, 50 mM KCl). The FRET probe sequences were diluted from stock to the correct concentration (0.4 μM) and then annealed by heating to 95°C for 10 min, followed by cooling to RT. Test compounds were prepared as 1 mM in 10% DMSO and 10% 1mM HCl in HPLC-grade water. The rest of the dilutions were performed using FRET buffer. Annealed DNA (50 μL) and compound solution (50 μL) were distributed across 96-well RT-PCR plates (BioRad; MJ Research, Waltham, MA, USA). Relevant controls were also performed to check for interference with the assay. Fluorescence readings were made on a DNA Engine Opticon (MJ Research) with excitation at 450–495 nm and detection at 515–545 nm, taken at intervals of 0.5°C in the range 30–100°C, with a constant temperature being maintained for 30 s prior to each reading to ensure a stable value. Experiments were performed in triplicate. Final analysis of the data was carried out with GraphPad Prism 5.0 software (GraphPad Software, Inc). The advanced curve-fitting function in GraphPad Prism was used for calculation of ΔT m values and associated standard deviations.

[4] = test system: KRAS mRNA; test: KRAS mRNA steady-state levels by Taqman Real-time RT-PCR; details: IC50 concentrations
[5] = test system: HCT116 cells; design: method as in PMID 23960016; details: HCT116 vs primary rat hepatocytes; cited from earlier work
[6] = test system: CCD18co cells; test: MTS short-term cytotoxicity assay (72 h), CCD18co; assay type: cell-based; details: Homo sapiens, CCD-18Co, MTS, standard errors ≤ 0.1, read-out: CCD18co IC50
Protocol: as §1, §2, §3

[7] = test system: KRAS21 G-quadruplex DNA; test: FRET melting assay, KRAS G-quadruplex DNA; assay type: binding; details: standard deviation < 0.2°C
Protocol: as §4, §5, §6

[8] = test system: SW620 cells; test: MTS short-term cytotoxicity assay (72 h), SW620; assay type: cell-based; details: 72 h, MTS, standard errors ≤ 0.1
Protocol: as §1, §2, §3

CCN(CC)CCOC(=O)c1ccc2c(c1)c1nc3ccccc3c(OCCN(CC)CC)c1n2CCN(CC)CC [1a]
IC50 ([1]; Homo sapiens, HEK-293T, standard errors ≤ 0.1, read-out: HEK293T IC50): 3.23 µM | HEK293T IC65 ([1]; standard errors ≤ 0.1): 6.06 µM | HCT116 IC65 ([2]; 72 h, MTS, standard errors ≤ 0.1): 3.42 µM | Selective index (SI) = IC50 CCD-18co / IC50 HCT116 ([2]; CCD18co vs HCT116): 2.46 | IC50 ([2]; Homo sapiens, HCT-116, 72 h, MTS, standard errors ≤ 0.1, read-out: HCT116 IC50): 1.88 µM | ΔTm (°C) T-Loop 1 μM ([3]; 1 μM compound): <2 °C | ΔTm (°C) T-Loop 2 μM ([3]; 2 μM compound): 3 °C | down-regulation of KRAS transcription (mRNA) ([4]; HCT116, 72 h): ~40% | down-regulation of KRAS transcription (mRNA) ([4]; SW620, 72 h): not significantly so | Selective growth inhibition of KRAS mutant HCT116 cells compared to primary rat hepatocytes [5]: 100 fold | IC50 [6]: 4.63 µM | ΔTm (°C) KRAS21 1 μM ([7]; 1 μM compound): 8 °C | ΔTm (°C) KRAS21 2 μM ([7]; 2 μM compound): 12 °C | SW620 IC65 [8]: 4.12 µM | IC50 ([8]; Homo sapiens, SW-620, read-out: SW620 IC50): 2.69 µM
